From patent US20250368649A1, “TETRAHYDROPYRIDOPYRIMIDINE PAN-KRAS INHIBITORS” (Mirati Therapeutics, Inc., priority 2022, published 2025)

Tests used:
H358 cells = test: Inhibition of KRas-mediated phosphorylation of ERK (Cisbio HTRF pERK), H358 cells; assay type: cell-based; details: Homo sapiens; for inhibition at 0.1 µM: NCI-H358, single point at 100 nM, 3 hrs compound incubation
KRas G12V = KRas G12V (Homo sapiens, UniProt P01116, G12V); test: biochemical; details: Binding to KRas (IC50 nM) G12V
KRas G12V, sequence (P01116 1-169 isoform P01116-2 G12V): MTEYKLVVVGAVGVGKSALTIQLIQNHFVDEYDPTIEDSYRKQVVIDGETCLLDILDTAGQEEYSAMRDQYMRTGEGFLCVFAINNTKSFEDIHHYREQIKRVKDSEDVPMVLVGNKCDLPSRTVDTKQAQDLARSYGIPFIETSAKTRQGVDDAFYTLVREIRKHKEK

H460 cells = test: Inhibition of KRas-mediated phosphorylation of ERK (Cisbio HTRF pERK), H460 cells; assay type: cell-based; details: Homo sapiens; for inhibition at 0.1 µM: NCI-H460, single point at 100 nM, 3 hrs compound incubation; for IC50: NCI-H460, 3 h, 3 hr compound incubation
KRas G12R = KRas G12R (Homo sapiens, UniProt P01116, G12R); test: biochemical; details: Binding to KRas (IC50 nM) G12R
KRas G12R, sequence (P01116 1-169 isoform P01116-2 G12R): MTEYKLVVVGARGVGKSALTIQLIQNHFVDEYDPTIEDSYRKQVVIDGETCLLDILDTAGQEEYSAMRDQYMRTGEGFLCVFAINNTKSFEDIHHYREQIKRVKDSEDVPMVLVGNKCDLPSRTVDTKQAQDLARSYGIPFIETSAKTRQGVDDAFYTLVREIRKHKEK

KRas G12D = KRas G12D (Homo sapiens, UniProt P01116, G12D); test: biochemical; details: Binding to KRas (IC50 nM) G12D
KRas G12D, sequence (P01116 1-169 isoform P01116-2 G12D): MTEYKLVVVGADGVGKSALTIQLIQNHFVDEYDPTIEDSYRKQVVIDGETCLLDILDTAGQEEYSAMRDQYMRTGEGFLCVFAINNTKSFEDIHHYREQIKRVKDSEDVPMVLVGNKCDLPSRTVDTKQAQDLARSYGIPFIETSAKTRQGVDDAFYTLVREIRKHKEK

A549 cells = test: Inhibition of KRas-mediated phosphorylation of ERK (Cisbio HTRF pERK), A549 cells; assay type: cell-based; details: Homo sapiens; for inhibition at 0.1 µM: single point at 100 nM, 3 hrs compound incubation; for IC50: A549, 3 h, 3 hr compound incubation
H727 cells = test: Inhibition of KRas-mediated phosphorylation of ERK (Cisbio HTRF pERK), H727 cells; assay type: cell-based; details: Homo sapiens; for IC50: NCI-H727, 3 h, 3 hr compound incubation; for inhibition at 0.1 µM: NCI-H727, single point at 100 nM, 3 hrs compound incubation
ASPC1 cells = test: Inhibition of KRas-mediated phosphorylation of ERK (Cisbio HTRF pERK), ASPC1 cells; assay type: cell-based; details: Homo sapiens, AsPC-1 cells; for IC50: ASPC1, 3 h, 3 hr compound incubation; for inhibition at 0.1 µM: ASPC1, single point at 100 nM, 3 hrs compound incubation
HCT116 cells = test: Inhibition of KRas-mediated phosphorylation of ERK (Cisbio HTRF pERK), HCT116 cells; assay type: cell-based; details: Homo sapiens; for inhibition at 0.1 µM: HCT-116, single point at 100 nM, 3 hrs compound incubation; for IC50: HCT-116, 3 h, 3 hr compound incubation
[1] = TR-FRET displacement, KRas G12V
[2] = TR-FRET displacement, KRas G12R
[3] = TR-FRET displacement, KRas G12D

| IC50 (KRas G12V; [1]) [nM] | IC50 (KRas G12R; [2]) [nM] | IC50 (KRas G12D; [3]) [nM] | IC50 (H727 cells; Cisbio pERK HTRF) [nM] | IC50 (ASPC1 cells; Cisbio pERK HTRF) [nM] | SMILES | inhibition at 0.1 µM (H358 cells) [%] | inhibition at 0.1 µM (H460 cells) [%] | inhibition at 0.1 µM (A549 cells) [%] | inhibition at 0.1 µM (H727 cells) [%] | inhibition at 0.1 µM (ASPC1 cells) [%] | inhibition at 0.1 µM (HCT116 cells) [%] | other results |
| --- | --- | --- | --- | --- | --- | --- | --- | --- | --- | --- | --- | --- |
| < 2 | 4 | < 2 | 1560 | 52 | CCc1c(F)ccc2cc(O)cc(N3CCc4c(nc(OC[C@@]56CCCN5C[C@H](F)C6)nc4N4CCCn5nc(C(=O)N6CC7CNC(C7)C6)cc5C4)C3)c12 (stereo partly drawn) [Example 234, 3,6-diazabicyclo[3.2.1]octan-3-yl(5-(7-(8-ethyl-7-fluoro-3-hydroxynaphthalen-1-yl)-2-(((2R,7aS)-2-fluorohexahydro-1H-pyrrolizin-7a-yl)methoxy)-5,6,7,8-tetrahydropyrido[3,4-d]pyrimidin-4-yl)-5,6,7,8-tetrahydro-4H-pyrazolo[1,5-a][1,4]diazepin-2-yl)methanone] | -28 | -4 | 9 | 22 | 34 | 14 | – |
| 13 | 19 | 7 | 1640 | 639 | CCc1c(F)ccc2cc(O)cc(N3CCc4c(nc(OC[C@@]56CCCN5C[C@H](F)C6)nc4N4CCCn5nc(CN(C)S(=O)(=O)NC)cc5C4)C3)c12 [Example 237, 7-(8-ethyl-7-fluoro-3-hydroxy-1-naphthyl)-2-(((2R,7aS)-2-fluorotetrahydro-1H-pyrrolizin-7a(5H)-yl)methoxy)-4-(2-((methylsulfamoyl)methylamino)methyl-7,8-dihydro-4H-pyrazolo[1,5-a][1,4]diazepin-5(6H)-yl)-6,8-dihydro-5H-pyrido[3,4-d]pyrimidine] | 7 | -16 | 30 | 22 | 10 | 5 | – |
| 62 | 21 | 57 | 4100 | 3140 | CCc1c(F)ccc2cc(O)cc(N3CCc4c(nc(OC[C@@]56CCCN5C[C@H](F)C6)nc4N4CCCc5nn(C6CC6)cc5C4)C3)c12 [Example 239, 4-(4-(2-cyclopropyl-7,8-dihydropyrazolo[4,3-c]azepin-5(2H,4H,6H)-yl)-2-(((2R,7aS)-2-fluorohexahydro-1H-pyrrolizin-7a-yl)methoxy)-5,6-dihydropyrido[3,4-d]pyrimidin-7(8H)-yl)-5-ethyl-6-fluoronaphthalen-2-ol] | -8 | 11 | -9 | -8 | 6 | -5 | – |
| 8 | 9 | 13 | 1640 | 1460 | CCc1c(F)ccc2cc(O)cc(N3CCc4c(nc(OC[C@@]56CCCN5C[C@H](F)C6)nc4N4CCCCC(COCC(=O)NC)C4)C3)c12 (stereo partly drawn) [Example 245, 2-((1-(7-(8-ethyl-7-fluoro-3-hydroxynaphthalen-1-yl)-2-(((2R,7aS)-2-fluorohexahydro-1H-pyrrolizin-7a-yl)methoxy)-5,6,7,8-tetrahydropyrido[3,4-d]pyrimidin-4-yl)azepan-3-yl)methoxy)-N-methylacetamide] | 5 | 12 | 4 | 15 | 12 | 10 | – |
| – | – | – | 124 | 161 | CCc1c(F)ccc2cc(O)cc(N3CCc4c(nc(OC[C@@]56CCCN5C[C@H](F)C6)nc4N4CCOCC5(CCO5)C4)C3)c12 (stereo partly drawn) [Example 249, 5-ethyl-6-fluoro-4-(2-(((2R,7aS)-2-fluorohexahydro-1H-pyrrolizin-7a-yl)methoxy)-4-(1,6-dioxa-9-azaspiro[3.6]decan-9-yl)-5,6-dihydropyrido[3,4-d]pyrimidin-7(8H)-yl)naphthalen-2-ol] | 70 | 53 | 35 | 21 | 1 | 10 | – |
| 21 | 20 | 8 | – | – | CCc1c(F)ccc2cc(O)cc(N3CCc4c(nc(OC[C@@]56CCCN5C[C@H](F)C6)nc4N4CCCn5nc(N(C)S(N)(=O)=O)cc5C4)C3)c12 [Example 291, 7-(8-ethyl-7-fluoro-3-hydroxy-1-naphthyl)-2-(((2R,7aS)-2-fluorotetrahydro-1H-pyrrolizin-7a(5H)-yl)methoxy)-4-(2-((sulfamoyl)methylamino)-7,8-dihydro-4H-pyrazolo[1,5-a][1,4]diazepin-5(6H)-yl)-6,8-dihydro-5H-pyrido[3,4-d]pyrimidine] | 20 | 4 | 23 | – | – | 12 | – |
| 4 | < 2 | 6 | – | 1640 | CCc1c(F)ccc2cc(O)cc(N3CCc4c(nc(OC[C@@]56CCCN5C[C@H](F)C6)nc4N4CCCCC(CC(=O)N(C)C)C4)C3)c12 (stereo partly drawn) [Example 345, 2-(1-(7-(8-ethyl-7-fluoro-3-hydroxynaphthalen-1-yl)-2-(((2R,7aS)-2-fluorohexahydro-1H-pyrrolizin-7a-yl)methoxy)-5,6,7,8-tetrahydropyrido[3,4-d]pyrimidin-4-yl)azepan-3-yl)-N,N-dimethylacetamide] | 13 | -9 | 12 | – | – | 5 | – |
| < 2 | 2 | 3 | 193 | 117 | CCc1c(F)ccc2cc(O)cc(N3CCc4c(nc(OC[C@@]56CCCN5C[C@H](F)C6)nc4N4CCCn5nccc5C4)C3)c12 [Example 418, 4-(4-(7,8-dihydro-4H-pyrazolo[1,5-a][1,4]diazepin-5(6H)-yl)-2-(((2R,7aS)-2-fluorohexahydro-1H-pyrrolizin-7a-yl)methoxy)-5,6-dihydropyrido[3,4-d]pyrimidin-7(8H)-yl)-5-ethyl-6-fluoronaphthalen-2-ol] | – | – | – | – | – | – | IC50 (H460 cells; Cisbio pERK HTRF): 375 nM; IC50 (A549 cells; Cisbio pERK HTRF): 236 nM; IC50 (HCT116 cells; Cisbio pERK HTRF): 787 nM |
| – | – | – | – | – | CCc1c(F)ccc2cc(OP(C)(C)=O)cc(N3CCc4c(nc(OC[C@@]56CCCN5C[C@H](F)C6)nc4N4CCCn5nc(NC)cc5C4)C3)c12 [Example 446, 5-ethyl-6-fluoro-4-(2-(((2R,7aS)-2-fluorohexahydro-1H-pyrrolizin-7a-yl)methoxy)-4-(2-(methylamino)-7,8-dihydro-4H-pyrazolo[1,5-a][1,4]diazepin-5(6H)-yl)-5,6-dihydropyrido[3,4-d]pyrimidin-7(8H)-yl)naphthalen-2-yl dimethylphosphinate] | – | 27 | – | 13 | 21 | 0 | IC50 (KRas G12V): 9 nM; IC50 (KRas G12R): 3 nM; IC50 (KRas G12D): 12 nM |
| 9 | 13 | 20 | 7510 | > 10000 | CCc1c(F)ccc2cc(O)cc(N3CCc4c(nc(N5CC(C)(N)C5)nc4N4CCCC5(C4)NC(=O)NC5=O)C3)c12 (stereo not shown) [Example 488, 7-(2-(3-amino-3-methylazetidin-1-yl)-7-(8-ethyl-7-fluoro-3-hydroxynaphthalen-1-yl)-5,6,7,8-tetrahydropyrido[3,4-d]pyrimidin-4-yl)-1,3,7-triazaspiro[4.5]decane-2,4-dione] | – | 14 | – | 5 | 13 | -1 | – |
| – | – | – | – | – | CCc1c(F)ccc2cc(O)cc(N3CCc4c(nc(OC[C@@]56CCCN5C[C@H](F)C6)nc4N4CCCn5nc(C(=O)N6CC[C@H]7CC[C@@H]6C7)cc5C4)C3)c12 [Example 617, ((1R,5R)-2-azabicyclo[3.2.1]octan-2-yl)(5-(7-(8-ethyl-7-fluoro-3-hydroxynaphthalen-1-yl)-2-(((2R,7aS)-2-fluorotetrahydro-1H-pyrrolizin-7a(5H)-yl)methoxy)-5,6,7,8-tetrahydropyrido[3,4-d]pyrimidin-4-yl)-5,6,7,8-tetrahydro-4H-pyrazolo[1,5-a][1,4]diazepin-2-yl)methanone] | – | – | – | – | – | – | IC50 (H358 cells; NCI-H358, 3 h, 3 hr compound incubation): 8 nM; IC50 (H460 cells): 40 nM; IC50 (A549 cells): 27 nM; IC50 (H727 cells): 15 nM; IC50 (ASPC1 cells): 13 nM; IC50 (HCT116 cells): 115 nM |
